# Data as given in patent US12649907B2, “Alternate detergents for viral inactivation” (AMGEN INC., priority 2019, dated 2026).
# Key:
# [1] = as indicated by the Hampton Kit; cited from earlier work
# [2] = tested on: xMuLV; assay: Concentration study, lowest concentration to inactivate virus; assay type: cell-based, xenotropic murine leukemia virus; settings: 15° C., 30-minute incubation
# [3] = tested on: MMV; assay: as above; assay type: cell-based, mouse minute virus
# [4] = tested on: xMuLV; assay: Temperature-dependent study, TCID50 LRV in host cell culture fluid matrices; assay type: cell-based, xenotropic murine leukemia virus; settings: for LRV BiTE ® / LRV fusion protein / LRV mAb: 30 minutes, 5× CMC; for Inactivation towards xMuLV at any temperature tested: in product matrices; for average LRV: process temperature of 15° C., average over modalities
# [5] = tested on: xMuLV; assay: Kinetic study of detergents, TCID50 LRV in host cell culture fluid matrices; assay type: cell-based, xenotropic murine leukemia virus; settings: for Clearance of xMuLV within 30 minutes: 15° C.
# [6] = tested on: PRV; assay type: cell-based, pseudorabies herpes virus
# [7] = tested on: xMuLV; assay type: cell-based, xenotropic murine leukemia virus; settings: initial screen, 10× CMC or 10% w/v, 30 minutes, 15° C., 5% virus spike, PG4 cells
compound,measurement,setting,value
CCCCCCCCCO[C@@H]1O[C@H](CO)[C@@H](O)[C@H](O)[C@H]1O [n-Nonyl-b-D-glucoside],CMC,[1],6.5 mM
CCCCCCCCCCO[C@@H]1O[C@H](CO)[C@@H](O[C@H]2O[C@H](CO)[C@@H](O)[C@H](O)[C@H]2O)[C@H](O)[C@H]1O [n-Decyl-b-D-maltoside],CMC,[1],1.8 mM
"CCCCCCCCCCOP(=O)([O-])OCC[N+](C)(C)C [Fos-Choline ®-10, n-decylphosphocholine]",Cytopathic effects (CPE) at 2.5×CMC,[2],showed cytopathic effects (CPE)
same,Cytopathic effects (CPE) at 2.5×CMC,[3],showed cytopathic effects (CPE)
same,LRV BiTE ®,[4]; 5° C.,2.09 ± 0.31
same,LRV fusion protein,[4]; 5° C.,1.76 ± 0.41
same,LRV mAb,[4]; 5° C.,2.54 ± 0.34
same,LRV BiTE ®,[4]; 15° C.,3.92 ± 0.67
same,LRV fusion protein,[4]; 15° C.,3.51 ± 0.43
same,LRV mAb,[4]; 15° C.,3.97 ± 0.90
same,Inactivation towards xMuLV at any temperature tested,[4],did not yield significant inactivation
same,average LRV,[4],3.8
same,Clearance of xMuLV within 30 minutes,[5],did not lead to robust clearance
same,LRV 30 s,"[5]; BiTE ® #1, 15° C.",0.69 ± 0.44
same,LRV 10 min,"[5]; BiTE ® #1, 15° C.",1.57 ± 0.47
same,LRV 30 min,"[5]; BiTE ® #1, 15° C.",3.92 ± 0.67
same,LRV 30 s,"[5]; fusion protein #1, 15° C.",0.82 ± 0.57
same,LRV 10 min,"[5]; fusion protein #1, 15° C.",1.82 ± 0.51
same,LRV 30 min,"[5]; fusion protein #1, 15° C.",3.51 ± 0.43
same,LRV 30 s,"[5]; mAb #1, 15° C.",0.69 ± 0.31
same,LRV 10 min,"[5]; mAb #1, 15° C.",1.61 ± 0.56
same,LRV 30 min,"[5]; mAb #1, 15° C.",3.97 ± 0.90
same,Cytopathic effects (CPE) at 2.5×CMC,[6],showed cytopathic effects (CPE)
same,CMC,[1],11 mM
CCCCCCCCCCCO[C@@H]1O[C@H](CO)[C@@H](O[C@H]2O[C@H](CO)[C@@H](O)[C@H](O)[C@H]2O)[C@H](O)[C@H]1O [n-Undecyl-b-D-maltoside],CMC,[1],0.59 mM
CCCCCCCCCC(=O)N(CCO)C[C@H](O)[C@@H](O)[C@H](O)[C@H](O)CO [HEGA ®-10],CMC,[1],7 mM
CCCCCCCCCCCC(=O)OC[C@@H](O)COP(=O)([O-])OCC[N+](C)(C)C [LysoFos ™ Choline 12],CMC,[1],0.7 mM
CCCCCCCCCCCC[N+](C)(C)CCCC(=O)[O-] [DDMAB],CMC,[1],4.3 mM
"OC[C@H]1O[C@H](O[C@H]2[C@H](O)[C@@H](O)[C@H](OCCCCCCC3CCCCC3)O[C@@H]2CO)[C@H](O)[C@@H](O)[C@@H]1O [CYMAL ®-6, 6-cyclohexyl-1-hexyl-β-D-maltoside]",CMC,[1],0.56 mM
"CC(C)CC(CC(C)C)O[C@@H]1O[C@H](CO)[C@@H](O[C@H]2O[C@H](CO)[C@@H](O)[C@H](O)[C@H]2O)[C@H](O)[C@H]1O [2,6-Dimethyl-4-heptyl-b-D-malto-pyranoside]",CMC,[1],27.5 mM
CCCCCCCCS[C@@H]1O[C@H](CO)[C@@H](O[C@H]2O[C@H](CO)[C@@H](O)[C@H](O)[C@H]2O)[C@H](O)[C@H]1O [n-Octyl-β-D-Thiomaltopyranoside],CMC,[1],8.8 mM
CCCCCCCCCCCCCOCCOCCOCCOCCOCCOCCOCCOCCO [Anapoe C13E8],Viral inactivation towards xMuLV (CPE),[7],did not
CCCCCCCCCC(=O)N(C)C[C@H](O)[C@@H](O)[C@H](O)[C@H](O)CO [MEGA-10],CMC,[1],7 mM
CCCCCCCCC(=O)N(C)C[C@H](O)[C@@H](O)[C@H](O)[C@H](O)CO [MEGA-9],CMC,[1],25 mM
"OC[C@H]1O[C@H](O[C@H]2[C@H](O)[C@@H](O)[C@H](OCCCCCC3CCCCC3)O[C@@H]2CO)[C@H](O)[C@@H](O)[C@@H]1O [CYMAL ®-5, 5-cyclohexylpentyl-β-D-maltoside]",Cytopathic effects (CPE) at 2.5×CMC,[2],showed cytopathic effects (CPE)
same,Cytopathic effects (CPE) at 2.5×CMC,[3],showed cytopathic effects (CPE)
same,LRV BiTE ®,[4]; 15° C.,−0.06 ± 0.69
same,LRV fusion protein,[4]; 15° C.,0.62 ± 0.48
same,LRV mAb,[4]; 15° C.,0.62 ± 0.50
same,increase in LRV at higher temperature (22° C.),[4]; 22° C. versus 15° C.,~1 log
same,LRV BiTE ®,[4]; 22° C.,1.19 ± 0.29
same,LRV fusion protein,[4]; 22° C.,1.01 ± 0.45
same,LRV mAb,[4]; 22° C.,1.94 ± 0.52
same,Inactivation towards xMuLV at any temperature tested,[4],did not yield significant inactivation
same,average LRV,[4],0.39
same,Clearance of xMuLV within 30 minutes,[5],did not lead to robust clearance
same,LRV 30 s,"[5]; BiTE ® #1, 15° C.",0.19 ± 0.69
same,LRV 10 min,"[5]; BiTE ® #1, 15° C.",0.06 ± 0.58
same,LRV 30 min,"[5]; BiTE ® #1, 15° C.",−0.06 ± 0.69
same,LRV 30 s,"[5]; fusion protein #1, 15° C.",−0.06 ± 0.69
same,LRV 10 min,"[5]; fusion protein #1, 15° C.",0.31 ± 0.52
same,LRV 30 min,"[5]; fusion protein #1, 15° C.",0.62 ± 0.48
same,LRV 30 s,"[5]; mAb #1, 15° C.",0.25 ± 0.58
same,LRV 10 min,"[5]; mAb #1, 15° C.",0.12 ± 0.58
same,LRV 30 min,"[5]; mAb #1, 15° C.",0.62 ± 0.50
same,Cytopathic effects (CPE) at 2.5×CMC,[6],showed cytopathic effects (CPE)
same,CMC,[1],5 mM
CCCCCCCCC(=O)N(CCO)C[C@H](O)[C@@H](O)[C@H](O)[C@H](O)CO [HEGA ®-9],CMC,[1],39 mM
CCCCCCCCCS[C@@H]1O[C@H](CO)[C@@H](O[C@H]2O[C@H](CO)[C@@H](O)[C@H](O)[C@H]2O)[C@H](O)[C@H]1O [n-Nonyl-b-D-thiomaltoside],CMC,[1],3.2 mM
O=C(CCCCC1CCCCC1)N(CCO)CC(O)C(O)C(O)C(O)CO (stereo not drawn) [C-HEGA ®-11],CMC,[1],11.5 mM
CCCCCCCCCO[C@@H]1O[C@H](CO)[C@@H](O[C@H]2O[C@H](CO)[C@@H](O)[C@H](O)[C@H]2O)[C@H](O)[C@H]1O [n-Nonyl-b-D-maltoside],CMC,[1],6 mM
"OC[C@H]1O[C@H](O[C@H]2[C@H](O)[C@@H](O)[C@H](OCCCCC3CCCCC3)O[C@@H]2CO)[C@H](O)[C@@H](O)[C@@H]1O [CYMAL ®-4, 4-Cyclohexyl-1-Butyl-β-D-Maltoside]",CMC,[1],7.6 mM
CCCCCCCC(=O)N(C)C[C@H](O)[C@@H](O)[C@H](O)[C@H](O)CO [MEGA-8],CMC,[1],79 mM
CCCCCCCCCCCCCC(=O)OC[C@@H](O)COP(=O)([O-])OCC[N+](C)(C)C [LysoFos ™ Choline 14],CMC,[1],0.036 mM
CCCCCCCCOCCOCCOCCOCCO [Detergent C8E4],CMC,[1],8 mM
CCCCCCO[C@@H]1O[C@H](CO)[C@@H](O)[C@H](O)[C@H]1O [n-Hexyl-b-D-glucopyranoside],CMC,[1],250 mM
C[C@H](CCC(=O)NCCC[N+](C)(C)CCCS(=O)(=O)[O-])[C@H]1CC[C@H]2[C@@H]3[C@H](O)C[C@@H]4C[C@H](O)CC[C@]4(C)[C@H]3C[C@H](O)[C@]12C [CHAPS],CMC,[1],8 mM
CCCCCCCCCCOCCOCCOCCOCCOCCOCCOCCOCCOCCO [Anapoe C10E9],Viral inactivation towards xMuLV (CPE),[7],did not
CCCCCCCCCCOP(=O)(O)OCCNC [FOS-MEA ®-10],CMC,[1],5.25 mM
CCCCCCCCS[C@@H]1O[C@H](CO)[C@@H](O)[C@H](O)[C@H]1O [n-Octyl-β-D-Thioglucoside],CMC,[1],9 mM
CCCCCCCCCCOCCOCCOCCOCCOCCOCCO [Anapoe C10E6],Viral inactivation towards xMuLV (CPE),[7],did not
CCCCCCCCCCCCCOC1OC(CO)C(OC2OC(CO)C(O)C(O)C2O)C(O)C1O [n-Tridecyl-β-D-maltoside],CMC,[1],0.033 mM
O=C(CCCC1CCCCC1)N(CCO)CC(O)C(O)C(O)C(O)CO (stereo not drawn) [C-HEGA ®-10],CMC,[1],35 mM
n-Decanoylsucrose,CMC,[1],2.5 mM
CCCCCCCC[N+](C)(C)CCCS(=O)(=O)[O-] [ZWITTERGENT ® 3-08],CMC,[1],330 mM
CCCCCCCNC(=O)OC[C@H]1O[C@H](OC)[C@H](O)[C@@H](O)[C@@H]1O [HECAMEG ®],CMC,[1],19.5 mM
CCCCCCCCO[C@@H]1O[C@H](CO)[C@@H](O)[C@H](O)[C@H]1O [n-Octyl-b-D-glucoside],CMC,[1],20 mM
C[C@H](CCC(=O)NCCC[N+](C)(C)CC(O)CS(=O)(=O)[O-])[C@H]1CC[C@H]2[C@@H]3[C@H](O)C[C@@H]4C[C@H](O)CC[C@]4(C)[C@H]3C[C@H](O)[C@]12C (stereo partly drawn) [CHAPSO],CMC,[1],8 mM
CCCCCCCCOCCOCCOCCOCCOCCOCCO [Hexaethylene glycol monooctyl ether],CMC,[1],10 mM
Sucrose monolaurate,CMC,[1],0.3 mM
"OC[C@H]1O[C@H](O[C@H]2[C@H](O)[C@@H](O)[C@H](OCCCCCCCC3CCCCC3)O[C@@H]2CO)[C@H](O)[C@@H](O)[C@@H]1O [CYMAL ®-7, 7-cyclohexyl-l-heptyl-β-D-maltoside]",CMC,[1],0.19 mM
CCCCCCCCCCCCO[C@@H]1O[C@H](CO)[C@@H](O[C@H]2O[C@H](CO)[C@@H](O)[C@H](O)[C@H]2O)[C@H](O)[C@H]1O [n-Dodecyl-b-D-maltoside],CMC,[1],0.17 mM
CCCCCCCCOCCOCCOCCOCCOCCO [Detergent C8E5],CMC,[1],7.1 mM
CCCCCCCC(=O)N(CCO)C[C@H](O)[C@@H](O)[C@H](O)[C@H](O)CO [HEGA ®-8],CMC,[1],109 mM
"OC[C@H]1O[C@H](O[C@H]2[C@H](O)[C@@H](O)[C@H](OCCCC3CCCCC3)O[C@@H]2CO)[C@H](O)[C@@H](O)[C@@H]1O [CYMAL ®-3, 3-Cyclohexyl-1-Propyl-β-D-Maltoside]",CMC,[1],34.5 mM
O=C(CCC1CCCCC1)N(CCO)C[C@H](O)[C@@H](O)[C@H](O)[C@H](O)CO [C-HEGA ®-9],CMC,[1],108 mM
CCCCCCCCCCCCOCCOCCOCCOCCOCCOCCOCCOCCOCCOCCO [Anapoe C12E10],Viral inactivation towards xMuLV (CPE),[7],did not
